Bounds are passed on as bounds.

Two molecules from patent publication US8597649B2, “Antagonist antibodies directed against calcitonin gene-related peptide and methods using same” (Labrys Biologics, Inc., priority 2005, dated 2013) can be followed below.

Experiment [1] deals with middle meningeal artery (MMA) dilation evoked by electrical field stimulation. In words: Dural artery (closed cranial window) assay. The class given is in vivo. Particulars: rat, i.v. The method, then: Closed Cranial Window Model: The purpose of this experiment was to determine the acute effect of anti-CGRP antagonist antibodies and compare it with the acute effect of the CGRP receptor antagonist BIBN4096BS. Experiments were carried out as previously described (Williamson et al., Cephalalgia 17(4):518-24 (1997)) with the following modifications. Sprague Dawley rats (300-400 g) were anesthetized with 70 mg/kg i.p. pentobarbital. Anesthesia was maintained with 20 mg/kg/hr i.v. pentobarbital. Rats were cannulated through the jugular vein for delivery of all drugs. Blood pressure was monitored with a probe (mikro-tip catheter, Millar Instruments) threaded through the femoral artery into the abdominal aorta. The rats were tracheotomized and breathing rate was maintained at 75 breaths per minute at a volume of 3.5 mL. After fixating the head in a stereotactic instrument and removing the scalp, a 2×6 mm window in the left parietal area just lateral to the sagittal suture was made by thinning the bone with a dental drill. […] Lateral to the electrode window another window of 5×6 mm was created and filled with heavy mineral oil through which the diameter of a branch of the middle meningeal artery (MMA) was continuously monitored with a CCD camera and a video dimension analyzer (Living Systems). […] All data was recorded using chart software (ADInstruments). […]

Experiment [2] concerns skin vasodilatation induced by stimulation of rat saphenous nerve. Briefly: skin vasodilatation induced by stimulation of rat saphenous nerve. The format is in vivo. The settings on record: 400 nmol/kg i.v., 3-5 min before stimulation, compared to the control (FIG. 2A, 2B). As for the experimental part:
To test antagonist activity of anti-CGRP antibodies, effect of the antibodies on skin vasodilatation by stimulation of rat saphenous nerve was tested using a rat model described previously. Escott et al., Br. J. Pharmacol. 110:772-776, 1993. In this rat model, electrical stimulation of saphenous nerve induces release of CGRP from nerve endings, resulting in an increase in skin blood flow. Blood flow in the foot skin of male Sprague Dwaley rats (170-300 g, from Charles River Hollister) was measured after saphenous nerve stimulation. Rats were maintained under anesthesia with 2% isoflurane. Bretylium tosylate (30 mg/kg, administered i.v.) was given at the beginning of the experiment to minimize vasoconstriction due to the concomitant stimulation of sympathetic fibers of the saphenous nerve. Body temperature was maintained at 37° C. by the use of a rectal probe thermostatically connected to a temperature controlled heating pad. […]
For experiments shown in FIGS. […] Skin blood flow, measured as blood cell flux, was monitored with a laser Doppler flow meter. […]
For experiments shown in FIGS. 4A and 4B, saphenous nerve was exposed surgically before antibody administration. […] Skin blood flow, measured as blood cell flux, was monitored with a laser Doppler flow meter. […]

In the case of `NCCCC[C@H](NC(=O)[C@@H](Cc1cc(Br)c(O)c(Br)c1)NC(=O)N1CCC(N2Cc3ccccc3NC2=O)CC1)C(=O)N1CCN(c2ccncc2)CC1` [BIBN4096BS], in experiment [1] (300 μg/kg BIBN4096BS (FIG. 9)), the “time after dosing by which the effect has completely disappeared” value was no more than 90 min. Further, the “block of MMA dilation evoked by electrical field stimulation” value in experiment [1] (acute, 10 mg/kg mu7E9, 300 μg/kg BIBN4096BS (FIG. 9)) is “blocks”.
As to “CGRP 8-37: Positive control compound CGRP 8-37 (vasodilatation antagonist) (VTHRLAGLLSRSGGVVKNNFVPTNVGSKAF) [reference compound]”, the “blood flow increase stimulated by applying electronic pulses on saphenous nerve” value in experiment [2] is reported as “inhibited”.
